This passage reports binding and Kd results from paper PMC10135756 (2023).

Experiment [1] concerns Ade Apt (adenosine aptamer, WT) (DNA, aptamer) ACCTGGGGGAGTATTGCGGAGGAAGGT
Briefly: ThT fluorescence. The conditions noted are these: 50 mM NaCl, 4 mM MgCl2; 10 mM HEPES pH 7.6; 2 μM ThT, 100 nM aptamer.

The test system is the same in experiment [2]. Briefly: ThT displacement fluorescence, quartz cuvette. The conditions noted are these: 50 mM NaCl, 4 mM MgCl2, 10 mM HEPES pH 7.6, 20 °C.
Experiment [3] concerns DNA1 (DNA, other) ACGACACGGAGGCTTAGTTTGCTAAATGGTCATGTCGT
Kind of experiment: SGI fluorescence. The conditions noted are these: 500 mM NaCl, 20 mM MgCl2; 50 mM Tris pH 7.6; 0.02× SGI, 200 nM DNA1.

Experiment [4] has as its system CSS.1-42 (DNA, aptamer) GACGACGCCCGCATGTTCCATGGATAGTCTTGACTAGTCGTC
Briefly: SGI fluorescence. The conditions noted are these: 100 mM NaCl, 10 mM MgCl2; 20 mM HEPES pH 7.5; 0.1× SGI, 1 μM aptamer.

The test system is the same in experiment [5]. Kind of experiment: SGI fluorescence increase, microplate. The conditions noted are these: 100 mM NaCl, 10 mM MgCl2; 20 mM HEPES pH 7.5; 0.1× SGI, 1 μM aptamer; with and without 0.01% Triton X-100; up to 6 μM.
For experiment [6], the system named is Ade Apt M2 (DNA, aptamer) ACCTGGGGTAGTATTGCGGAGTAAGGT
Briefly: ThT displacement fluorescence, quartz cuvette. Conditions: 50 mM NaCl, 4 mM MgCl2; 10 mM HEPES pH 7.6, 20 °C; 2 μM ThT; up to 500 μM.

On to `Cc1ccc2c(c1)sc(-c1ccc(N(C)C)cc1)[n+]2C`, for which, in experiment [1], the binding entry is on record as “yes”. Consider `Nc1nc2c(ncn2[C@@H]2O[C@H](CO)[C@@H](O)[C@H]2O)c(=O)[nH]1`, for which the binding entry in experiment [2] (2 μM ThT, up to 500 μM) is “no”. Consider `CCCN(CCCN(C)C)c1cc(C=C2Sc3ccccc3N2C)c2ccccc2[n+]1-c1ccccc1`, for which the binding entry in experiment [3] is “yes”; in experiment [4], “weak”. With `C[C@]12CCC(=O)C=C1CC[C@@H]1[C@@H]2[C@@H](O)C[C@@]2(C)[C@H]1CC[C@]2(O)C(=O)CO`, in experiment [5], the binding entry is given as “yes”.

`Nc1ncnc2c1ncn2[C@@H]1O[C@H](CO)[C@@H](O)[C@H]1O`: the Kd in experiment [2] (2 μM ThT displaced, 100 nM aptamer, 10 min equilibration, apparent) is 16.6 ± 8.4 µM. Also, the binding entry in experiment [6] is reported as “no”.
